Measured values as given in ChEMBL document CHEMBL1201862, “PubChem BioAssay data set” (2004).
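In this assay, cells in 96-well plates receive the compound at five concentrations for 48 hours. Endpoints are linearly interpolated between the surrounding concentrations. GI50 is the concentration that inhibits growth by half.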 Active and inactive are the calls of the source. No stated cut-off is given here; in the data, active = GI50 up to about 1.1 µM and inactive = higher.

What was measured:
Experiment in all cases: growth of human tumour cells (NCI), 48 h
[1] = test system: HCT-15
[2] = test system: CAKI-1
[3] = test system: NCI-H460
[4] = test system: A549
[5] = test system: OVCAR-5
[6] = test system: RPMI-8226
[7] = test system: MOLT-4
[8] = test system: LXFL 529
[9] = test system: SNB-75
[10] = test system: HOP-18
[11] = test system: SK-MEL-28
[12] = test system: 786-0
[13] = test system: SNB-19
[14] = test system: K562
[15] = test system: SF-295
[16] = test system: SR
[17] = test system: U-251
[18] = test system: M19-MEL
[19] = test system: DLD-1
[20] = test system: LOX IMVI
[21] = test system: HOP-92
[22] = test system: OVCAR-3
[23] = test system: DMS-273
[24] = test system: A498
[25] = test system: SK-MEL-2
[26] = test system: UACC-62
[27] = test system: NCI-H23
[28] = test system: SK-MEL-5
[29] = test system: EKVX
[30] = test system: HCC 2998
[31] = test system: SF-539
[32] = test system: IGROV-1
[33] = test system: CCRF-CEM
[34] = test system: M14
[35] = test system: SW-620
[36] = test system: UACC-257
[37] = test system: TK-10
[38] = test system: RXF 631
[39] = test system: KM12
[40] = test system: OVCAR-4
[41] = test system: Malme-3M
[42] = test system: ACHN
[43] = test system: RXF 393
[44] = test system: NCI-H226
[45] = test system: SK-OV-3
[46] = test system: HOP-62
[47] = test system: KM-20L2
[48] = test system: HCT-116
[49] = test system: SF-268
[50] = test system: HL-60
[51] = test system: COLO 205
[52] = test system: HT-29
[53] = test system: UO-31
[54] = test system: SN12C
[55] = test system: SNB-78
[56] = test system: OVCAR-8
[57] = test system: DMS-114
[58] = test system: XF498

In the case of `CC(C)=CC(=O)Cc1nc2ccccc2[nH]c1=O`, the GI50 [1] is reported as over 100 µM, the GI50 [2] is reported as 76.7 µM (inactive) and the GI50 [3] is reported as > 100 µM (inactive). The GI50 [4] was > 100 µM (inactive), the GI50 [5] was > 100 µM (inactive) and the GI50 [6] was > 100 µM (inactive). The GI50 [7] was > 100 µM (inactive), the GI50 [8] was > 100 µM (inactive) and the GI50 [9] was 40.3 µM (inactive). The GI50 [10] was 37 µM (inactive), the GI50 [11] was > 100 µM (inactive) and the GI50 [12] was 82.4 µM (inactive). The GI50 [13] was > 100 µM (inactive), the GI50 [14] was > 100 µM (inactive) and the GI50 [15] was 64 µM (inactive). The GI50 [16] was > 100 µM (inactive), the GI50 [17] was > 100 µM (inactive) and the GI50 [18] was > 100 µM (inactive). The GI50 [19] was > 100 µM (inactive), the GI50 [20] was > 100 µM (inactive) and the GI50 [21] was 22.4 µM (inactive). The GI50 [22] was > 100 µM (inactive), the GI50 [23] was > 100 µM (inactive) and the GI50 [24] was > 100 µM (inactive). The GI50 [25] was > 100 µM (inactive), the GI50 [26] was > 100 µM (inactive) and the GI50 [27] was > 100 µM (inactive). For the same compound, the GI50 [28] was > 100 µM (inactive), the GI50 [29] was 47.3 µM (inactive) and the GI50 [30] was > 100 µM (inactive). The GI50 [31] was > 100 µM (inactive), the GI50 [32] was > 100 µM (inactive) and the GI50 [33] was 64.7 µM (inactive). The GI50 [34] was > 100 µM (inactive), the GI50 [35] was > 100 µM (inactive) and the GI50 [36] was > 100 µM (inactive). For the same compound, the GI50 [37] was > 100 µM (inactive), the GI50 [38] was > 100 µM (inactive) and the GI50 [39] was > 100 µM (inactive). For the same compound, the GI50 [40] was 52.2 µM (inactive), the GI50 [41] was > 100 µM (inactive) and the GI50 [42] was > 100 µM (inactive). For the same compound, the GI50 [43] was 18.4 µM (inactive), the GI50 [44] was > 100 µM (inactive) and the GI50 [45] was > 100 µM (inactive). The GI50 [46] was 76 µM (inactive), the GI50 [47] was > 100 µM (inactive) and the GI50 [48] was > 100 µM (inactive). For the same compound, the GI50 [49] was > 100 µM (inactive), the GI50 [50] was 49.5 µM (inactive) and the GI50 [51] was > 100 µM (inactive). The GI50 [52] was > 100 µM (inactive), the GI50 [53] was 68.7 µM (inactive) and the GI50 [54] was > 100 µM (inactive). The GI50 [55] was > 100 µM (inactive).
`Cc1ccc(/C=C2\CCCCC2=O)cc1` was tested, and the GI50 [1] was over 100 µM, the GI50 [2] was 42.7 µM (inactive) and the GI50 [3] was 80.9 µM (inactive). The GI50 [4] was > 100 µM (inactive), the GI50 [7] was 15.8 µM (inactive) and the GI50 [8] was 94.6 µM (inactive). For the same compound, the GI50 [9] was 29.6 µM (inactive), the GI50 [10] was 24 µM (inactive) and the GI50 [11] was > 100 µM (inactive). For the same compound, the GI50 [12] was > 100 µM (inactive), the GI50 [14] was 25.7 µM (inactive) and the GI50 [56] was > 100 µM (inactive). For the same compound, the GI50 [15] was > 100 µM (inactive), the GI50 [17] was > 100 µM (inactive) and the GI50 [18] was > 100 µM (inactive). The GI50 [57] was 43.6 µM (inactive), the GI50 [19] was 49.2 µM (inactive) and the GI50 [20] was 31.5 µM (inactive). The GI50 [22] was > 100 µM (inactive), the GI50 [23] was 40.1 µM (inactive) and the GI50 [24] was > 100 µM (inactive). The GI50 [26] was > 100 µM (inactive), the GI50 [27] was > 100 µM (inactive) and the GI50 [28] was 91.6 µM (inactive). For the same compound, the GI50 [29] was > 100 µM (inactive), the GI50 [31] was > 100 µM (inactive) and the GI50 [32] was > 100 µM (inactive). The GI50 [33] was 28.1 µM (inactive), the GI50 [34] was 49.9 µM (inactive) and the GI50 [35] was > 100 µM (inactive). For the same compound, the GI50 [37] was > 100 µM (inactive), the GI50 [38] was > 100 µM (inactive) and the GI50 [58] was > 100 µM (inactive). For the same compound, the GI50 [40] was 33.6 µM (inactive), the GI50 [42] was 48.1 µM (inactive) and the GI50 [45] was > 100 µM (inactive). The GI50 [46] was > 100 µM (inactive), the GI50 [47] was > 100 µM (inactive) and the GI50 [48] was 43.4 µM (inactive). For the same compound, the GI50 [49] was > 100 µM (inactive), the GI50 [50] was 19 µM (inactive) and the GI50 [51] was > 100 µM (inactive). The GI50 [52] was 46.6 µM (inactive), the GI50 [53] was 78.9 µM (inactive) and the GI50 [54] was 97.5 µM (inactive). For the same compound, the GI50 [55] was 73.6 µM (inactive).
